According to patent publication US9279107B2, “Simplified basic media for human pluripotent cell culture” (WISCONSIN ALUMNI RESEARCH FOUNDATION, priority 2010, dated 2016):

Experiments:
H1 ES cells [1] = experiment: ES cell proliferation after insulin replacement; format: cell-based, human; conditions: insulin replaced after 24 hours with 30 ng/ml; feeder-free culture
Protocol: To determine whether IGF1 and IGF2 are sufficient to support ES cell proliferation in the absence of insulin, individualized H1 ES cells were plated onto Matrigel plates in TeSR (with insulin) for the first 24 hours. Then insulin was either removed or replaced with IGF1 (30 ng/ml) and IGF2 (30 ng/ml). Cell numbers were measured at specific time points, and the fold change in cell numbers was normalized to the cell counts at the time when insulin was first replaced.

H1 ES cells [2] = experiment: ES cell survival in mTeSR without insulin; format: cell-based, human; conditions: for cell survival: 30 ng/ml added at 0 hour; for cell survival, dosage response: low concentration (e.g., 3 ng/ml), 24 hours
Protocol: Pluripotent cell survival assays were carried out as described in Example 1. Media tested included mTeSR and mTeSR […]. IGF1R is known to be activated by insulin, IGF1 and IGF2 (Nguyen et al., Reproduction 134:41-49 (2007)). Accordingly, the inventors designed and carried out experiments to test how IGF1 or IGF2 could affect ES cell survival. Individualized H1 ES cells were plated in mTeSR™ with or without insulin (Sigma). IGF1 (30 ng/ml) and IGF2 (30 ng/ml) were added to media at 0 hour. […] Dosage response assays were conducted to determine useful concentrations of IGF1, IGF2, and Long-IGF-1 (Sigma) in pluripotent cell maintenance medium. Individualized H1 ES cells were plated in mTeSR without insulin, IGF1, IGF2 and Long-IGF1 were added at 0 hour, and cell survival was measured after 24 hours.

H1 ES cells [3] = experiment: Short term growth / proliferation after passaging; format: cell-based, human; conditions: for cell proliferation after passaging: factor added to DMEM/F12, NaHCO3, insulin and FGF, L-ascorbic acid 64 mg/L
Protocol: (§1) Five-hundred micro liter of various test media was loaded into each well of 12-well plates prior to the addition of cells. Adherent pluripotent cells were dissociated with TrypLE (Invitrogen) for 5 minutes or until fully detached from the culture plates. TrypLE was neutralized by adding an equal volume of media to the culture. The cells were counted, washed, and resuspended in fresh media at a concentration of 300,000 to 1,000,000 cells/ml. Approximately 100 μl of this cell solution was added into each well of the 12-well plates and the cells were incubated at 37° C. with 5% O2 and 10% CO2. Cells were again dissociated at various time points using 0.4 ml TrypLE, which was subsequently neutralized with equal volumes of 10% FBS in DMEM. The cells were counted by flow cytometry. 5000 count bright beads were added to each sample as internal control (approximately 200 beads were counted for each sample). All experiments were performed in triplicates.
TeSR medium contains six growth factors, in addition to those present in the basal medium, fibroblast growth factor (FGF), transforming growth factor beta (TGF-β), γ-aminobutyric acid (GABA), pipecolic acid, lithium chloride (LiCl), and insulin (Table 1). A basic nutrient medium (NM) was created containing all TeSR™ components with the exception of these six growth factors. About 2×10^5 H1 ES cells were dissociated and plated on Matrigel. The survival index was determined after 24 h. […] Thus, NM supplemented with FGF and Insulin supports human ES cell culture. Twelve different basal nutrient media supplemented as described above were able to support cell survival and growth (FIG. 1E).
NM contains 11 nutritional components, i.e., DMEM/F12, trace elements B, trace elements C, L-ascorbic acid, thiamine, selenium, L-glutamine, BSA, BME, sodium bicarbonate (NaHCO3), and transferrin (Table 1). […]
H1 cells grew faster in the DF5S medium compared to cells grown in TeSR™ (FIGS. 1C and 2A). […] To increase assay sensitivity only 5,000 cells were seeded in each well and analyzed for survival (24 h) and proliferation (124 h). […]

H1 cells [4] = experiment: Cloning efficiency of H1 cells; format: cell-based, human
Protocol: FIG. 2 A-F illustrate optimization of human ES cell and iPS cell culture conditions with DF5S. […] Cell survival was examined at 24 hours and 124 hours. […] DF5S trFe indicates DF5S media to which holotransferrin was added. FIG. 2E illustrates the cloning efficiency of H1 cells cultured in various media in the presence of HA100 (10 μM, 24 hours), blebbistatin (10 μM, 4 hours), or Y27632 (10 μM, 24 hours), compared to cloning efficiency in the absence of these factors (control). Asterisks indicate p<0.05. FIG. 2F illustrates cloning efficiency of H1 cells in conditioned medium (CM), CM with ROCK inhibitor (HA100), TeSR with ROCK inhibitor, and E8 with ROCK inhibitor in normoxic (dark gray bars) or hypoxic (light gray bars) conditions. Error bars indicate the standard error of the mean; asterisks indicate p<0.05.
To determine cloning efficiency at various oxygen and CO2 concentrations, 500 cells were seeded into each well. Even at low oxygen, cloning efficiency was too low (<2%) to determine effects of various conditions on cloning. HA100, a ROCK inhibitor known to increase cloning efficiency, was used to increase cloning efficiency for testing oxygen and CO2 concentrations. Conditioned medium (CM), known to be the best medium for cloning, was used as control.
The cells maintained a normal karyotype after more than 25 passages.

H1 cells [5] = experiment: Extended passage of cells in simplified media; format: cell-based, human; conditions: DF5, or nutritional factor added individually to DF5
foreskin cells [6] = experiment: Reprogramming of foreskin fibroblasts to iPS cells; format: cell-based, human
Protocol: Available reprogramming protocols include incubation of the cells in FBS in the first several days after viral transduction or electroporation, prior to switching the cells to UM100 (U.S. Pat. No. 7,439,064, incorporated herein as if set forth in its entirety) or CM. The simplified media described in previous Examples were tested for their ability to support reprogramming.
To determine if DF5S-based media can be used for viral-free iPS cell derivation, foreskin cells were reprogrammed using a viral-free episomal vector, as described in Yu et al., Science 324:797 (2009), incorporated herein by reference as if set forth in its entirety, at hypoxic conditions (O5C10).
Plasmid combinations #6 and #19 were used for the reprogramming. In order to enhance the plasmid entry into the nucleus, ENBA mRNA was electroporated along with plasmid DNA. Around one million cells were transferred onto two 6-well plates in DF5SFeC for 5 days. Medium was then switched to DF5SFe for another 18-25 days. Cells of some of the wells were passaged for a second time using a 1:6 ratio at different time points.

human fibroblasts = experiment: Reprogramming efficiency of human fibroblasts in E8-based medium; format: cell-based; conditions: E8 versus MEF feeder cells or TeSR; butyrate 100 μM with or without TGF-β
H1 ES cells [7] = experiment: Pluripotent cell survival assay (24 h survival index after dissociation); format: cell-based, human; conditions: basic nutrient medium NM with or without additions, H1 ES cells on Matrigel
Protocol: as §1, with “triplicates. TeSR medium contains six growth factors, in addition to those present in the basal medium, fibroblast growth factor (FGF), transforming growth factor beta (TGF-β), γ-aminobutyric acid (GABA), pipecolic acid, lithium chloride (LiCl), and insulin (Table 1). A basic nutrient medium (NM) was created containing all TeSR™ components with the exception of these six growth factors. […] The survival index was determined after 24 h. […]” for “triplicates.”

foreskin cells [8] = experiment: Foreskin cell growth in DF5SFe-based media; parameters: species or system human
Protocol: To determine growth factors that can help primary foreskin cell growth, individual growth factors contained in FBS were tested. The FGF family of growth factors has several members, one or more of which is commonly used for fibroblast culture. DF5SFe contains 100 ng/ml zebrafish recombinant FGF2. Each FGF family member was tested for its ability to support foreskin cell growth. Foreskin cells were aliquoted into the well of culture plates and incubated for 24 hours in DF5SFe minus FGF. Individual FGF types were added at 100 ng/ml for 96 h.

iPS cells = experiment: Cloning efficiency of iPS cells; format: cell-based, human; conditions: about 500 cells per well, in the presence of HA100, DF5S-based media versus TeSR or CM
Protocol: To determine how DF5S affects cloning efficiency, two iPS cell lines were grown in DF5S and plated at cloning density (approximately 500 cells per 12-well plate well) in the presence of HA100. […] To identify such factor, individual TeSR™ components were added individually to DF5S and tested for effect on cloning efficiency.

[9] = in E8, HA100 10 μM 24 h, blebbistatin 10 μM 4 h, Y27632 10 μM 24 h, versus control

## IGF2: ligand of the IGF1R receptor
H1 ES cells [1]
  cell proliferation: able to support cell proliferation
H1 ES cells [2]
  cell survival: rescued cell survival in the absence of insulin
  cell survival, dosage response: can support hES cell survival in the absence of insulin

## O=C1O[C@H]([C@@H](O)CO)C(O)=C1O [L-ascorbic acid]
H1 ES cells [3]
  cell proliferation after passaging: necessary for cell proliferation after passaging

## Cc1ccc2c(c1)C(=O)C1(O)CCN(c3ccccc3)C1=N2 (stereo not shown) [blebbistatin]
H1 cells [4]; [9]
  cloning efficiency: increased cloning efficiency

## [Se] [selenium]
H1 cells [5]
  cell growth / proliferation through multiple passages: sufficient to support cell proliferation through multiple passages

## CCCC(=O)[O-].[Na+] [Butyrate, sodium butyrate]
Foreskin cells [6]; foreskin fibroblasts
  number of colonies during reprogramming: did not increase the number of colonies
  ratio of true iPS cell to non-iPS cell colonies: improved the ratio of true iPS cell to non-iPS cell colonies significantly
Foreskin cells [6]; reagent added to reprogramming media
  reprogramming efficiency: improved reprogramming efficiency
Human fibroblasts
  reprogramming efficiency: further enhanced reprogramming efficiency

## insulin
H1 ES cells [7]
  cell survival after dissociation (survival index): cell survival similar to that observed with TeSR™
H1 ES cells [3]; added to NM, insulin 20 ug/ml, FGF2 100 ng/ml, 96 h, compared with TeSR
  cell growth: did not support cell growth

## C[C@@H](N)[C@H]1CC[C@H](C(=O)Nc2ccncc2)CC1 [Y27632]
H1 cells [4]; [9]
  cloning efficiency: increased cloning efficiency

## FGF1: FGF family member growth factor
Foreskin cells [8]; individual FGF added at 100 ng/ml for 96 h to DF5SFe minus FGF
  foreskin cell growth: supported foreskin cell growth most effectively

## O=S(=O)(c1cccc2cnccc12)N1CCNCC1 [HA100]
H1 cells [4]; [9]
  cloning efficiency: increased cloning efficiency
H1 cells [4]; in conditioned medium (CM), at both O5C10 and O15C5, 500 cells per well
  cloning efficiency: significantly improved cloning efficiency

## O=C(O)[C@@H]1C[C@@H](O)CN1 [Hydroxyproline]
H1 ES cells [3]
  cell proliferation after passaging: could partially substitute for L-ascorbic acid

## IGF1: ligand of the IGF1R receptor
H1 ES cells [1]
  cell proliferation: able to support cell proliferation
H1 ES cells [2]
  cell survival: rescued cell survival in the absence of insulin
  cell survival, dosage response: can support hES cell survival in the absence of insulin

## C[C@]12CCC(=O)C=C1CC[C@@H]1[C@@H]2[C@@H](O)C[C@@]2(C)[C@H]1CC[C@]2(O)C(=O)CO [Hydrocortisone, reference compound]
Foreskin cells [8]; added to DF5SFe to replace FBS
  foreskin cell growth: improved cell growth significantly
iPS cells
  cloning efficiency: improved iPS cell cloning efficiency

## holo-transferrin
H1 cells [4]; H1 cells in DF5S medium, transferrin added
  cloning efficiency: noticeable improvement of cloning efficiency
H1 cells [4]; [9]
  cloning efficiency: further increased
iPS cells
  cloning efficiency: cloning efficiency comparable to that using TeSR™
